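Grown in 96-well plates, cells were treated for 48 hours with each compound at five concentrations. Insufficient inhibition: endpoint recorded as highest concentration tested. Here, GI50 denotes the concentration required for 50% inhibition of growth. TGI denotes the concentration required for complete inhibition of growth.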
Experiments:
Experiment in all cases: NCI-60 cell line screen, 48 h
[1] = tested on: CAKI-1 renal
[2] = tested on: K-562 leukemia
[3] = tested on: NCI-H460 lung
[4] = tested on: OVCAR-3 ovarian
[5] = tested on: RPMI-8226 leukemia
[6] = tested on: RXF 393 renal
[7] = tested on: SK-MEL-2 melanoma
[8] = tested on: U251 CNS
[9] = tested on: UACC-62 melanoma

O=C1c2ccccc2-c2c1c1ccccc1c(=O)n2CCCNCCCn1ccnc1 gave a GI50 [1] of 0.446 µM, a TGI [1] of 2.95 µM and a GI50 [2] of 0.529 µM. For the same compound, the TGI [2] was 2.65 µM, the GI50 [3] was 1.27 µM and the TGI [3] was 43.1 µM. For the same compound, the GI50 [4] was 1.63 µM, the TGI [4] was 6.48 µM and the GI50 [5] was 0.195 µM. For the same compound, the TGI [5] was 1.02 µM, the GI50 [6] was 1.48 µM and the TGI [6] was 4.31 µM. For the same compound, the GI50 [7] was 2.56 µM, the TGI [7] was 8.17 µM and the GI50 [8] was 0.285 µM. It also gave a TGI [8] of 1.42 µM, a GI50 [9] of 1.72 µM and a TGI [9] of 5.95 µM.

In the case of COc1cc(Cl)c2c3c(c(C(C)=O)oc13)CCC2, the TGI [1] is reported as greater than 100 µM, the TGI [2] is reported as greater than 100 µM and the TGI [3] is reported as greater than 100 µM. The TGI [4] was greater than 100 µM, the TGI [5] was greater than 100 µM and the TGI [6] was greater than 100 µM. For the same compound, the TGI [8] was greater than 100 µM and the TGI [9] was greater than 100 µM.

Cc1cc(C)c([O-])c(CN(C)CCN(C)Cc2cc(C)cc(C)c2[O-])c1.O=C([O-])c1cccc(C(=O)[O-])n1.[Ti+4] gave a GI50 [1] of 3.93 µM, a TGI [1] greater than 100 µM and a GI50 [2] of 2.67 µM. It also gave a TGI [2] greater than 100 µM, a GI50 [3] of 2.01 µM and a TGI [3] greater than 100 µM. The GI50 [5] was 1.37 µM, the TGI [5] was 5.17 µM and the GI50 [6] was 1.42 µM. The TGI [6] was 3.96 µM, the GI50 [8] was 2.92 µM and the TGI [8] was greater than 100 µM.

CCOC(=O)C(Cc1c[nH]c2ccc(N)cc12)(NC(C)=O)C(=O)OCC showed a GI50 [2] greater than 1000 µM, a TGI [2] greater than 1000 µM and a GI50 [3] greater than 1000 µM. It also gave a TGI [3] greater than 1000 µM, a GI50 [4] greater than 1000 µM and a TGI [4] greater than 1000 µM. It also gave a GI50 [6] greater than 1000 µM, a TGI [6] greater than 1000 µM and a GI50 [8] greater than 1000 µM. The TGI [8] was greater than 1000 µM, the GI50 [9] was greater than 1000 µM and the TGI [9] was greater than 1000 µM.

For COc1cc(OC)cc(C2CC(=O)Nc3c2c(C)nn3-c2nc3ccccc3[nH]2)c1 (configuration not stated), the GI50 [1] was 3.36 µM, the TGI [1] was 11 µM and the GI50 [2] was 3.15 µM. The TGI [2] was greater than 100 µM, the GI50 [3] was 2.58 µM and the TGI [3] was 6.1 µM. It also gave a GI50 [4] of 2.3 µM, a TGI [4] of 5.02 µM and a GI50 [5] of 2.64 µM. For the same compound, the TGI [5] was 6.29 µM, the GI50 [6] was 3.21 µM and the TGI [6] was 24.6 µM. It also gave a GI50 [7] of 2.42 µM, a TGI [7] of 5.88 µM and a GI50 [8] of 2.99 µM. The TGI [8] was 9.57 µM, the GI50 [9] was 1.94 µM and the TGI [9] was 4.01 µM.

With O=C1OC(CC(=O)c2ccc(Cl)c(Cl)c2)C(Cl)=C1Cl (configuration not stated) the TGI [1] was greater than 100 µM, the TGI [2] was greater than 100 µM and the TGI [3] was greater than 100 µM. For the same compound, the TGI [4] was greater than 100 µM, the TGI [5] was greater than 100 µM and the TGI [6] was greater than 100 µM. It also gave a TGI [7] greater than 100 µM, a TGI [8] greater than 100 µM and a TGI [9] greater than 100 µM.

Compound CC(=O)[O-].CC(=O)[O-].[Pt+2].c1cscn1.c1cscn1 has a GI50 [1] greater than 100 µM, a TGI [1] greater than 100 µM and a GI50 [2] of 42.7 µM. It also gave a TGI [2] greater than 100 µM, a GI50 [3] greater than 100 µM and a TGI [3] greater than 100 µM. The GI50 [4] was greater than 100 µM, the TGI [4] was greater than 100 µM and the GI50 [5] was 57.7 µM. It also gave a TGI [5] greater than 100 µM, a GI50 [6] greater than 100 µM and a TGI [6] greater than 100 µM. The GI50 [7] was greater than 100 µM, the TGI [7] was greater than 100 µM and the GI50 [8] was 54.5 µM. The TGI [8] was greater than 100 µM, the GI50 [9] was greater than 100 µM and the TGI [9] was greater than 100 µM.

Compound CCOC(=O)C(N)C[S][Sn]([CH3])([CH3])[Cl] (configuration not stated) has a GI50 [1] greater than 100 µM, a TGI [1] greater than 100 µM and a GI50 [2] of 39.6 µM. The TGI [2] was greater than 100 µM, the GI50 [3] was greater than 100 µM and the TGI [3] was greater than 100 µM. The GI50 [4] was greater than 100 µM, the TGI [4] was greater than 100 µM and the GI50 [5] was greater than 84.9 µM. It also gave a TGI [5] greater than 100 µM, a GI50 [6] greater than 100 µM and a TGI [6] greater than 100 µM. It also gave a GI50 [7] greater than 100 µM, a TGI [7] greater than 100 µM and a GI50 [8] greater than 100 µM. It also gave a TGI [8] greater than 100 µM, a GI50 [9] of 65.9 µM and a TGI [9] greater than 100 µM.

NNC(=O)/C(=C/c1ccc(Cl)c(Cl)c1)NC(=O)c1ccccc1 gave a TGI [3] greater than 100 µM, a TGI [4] greater than 100 µM and a TGI [5] greater than 100 µM. The TGI [6] was greater than 100 µM, the TGI [7] was greater than 100 µM and the TGI [8] was greater than 100 µM. The TGI [9] was greater than 100 µM.

Compound NC(=O)C(=Cc1ccc(C(O)P(=O)(O)O)cc1)C(N)=O (configuration not stated) has a TGI [1] greater than 100 µM, a TGI [2] greater than 100 µM and a TGI [3] greater than 100 µM. For the same compound, the TGI [4] was greater than 100 µM, the TGI [5] was greater than 100 µM and the TGI [6] was greater than 100 µM. It also gave a TGI [7] greater than 100 µM, a TGI [8] greater than 100 µM and a TGI [9] greater than 100 µM.

O=[N+]([O-])c1cccc(C2N3CCCCC3[C@@H]3c4[nH]c5ccccc5c4CCN23)c1 (some centres not stated) showed a TGI [1] greater than 100 µM, a TGI [2] of 19.6 µM and a TGI [3] of 31.1 µM. For the same compound, the TGI [4] was 32.2 µM, the TGI [5] was greater than 100 µM and the TGI [6] was 18.8 µM. For the same compound, the TGI [7] was 22 µM, the TGI [8] was 28.4 µM and the TGI [9] was 19.9 µM.

Compound COc1ccc([N+](=O)[O-])c2c(NCCCN(C)C)c3ccccc3nc12 has a TGI [1] of 5.7 µM, a TGI [2] of 3.76 µM and a TGI [3] of 0.257 µM. It also gave a TGI [4] of 0.442 µM, a TGI [5] of 2.17 µM and a TGI [6] of 0.253 µM. The TGI [7] was 0.281 µM, the TGI [8] was 2.05 µM and the TGI [9] was 0.285 µM.

Work on c1ccc2c(c1)CCC/C2=N\OCC1CO1 (configuration not stated) yielded a TGI [1] greater than 100 µM, a TGI [2] greater than 100 µM and a TGI [3] greater than 100 µM. It also gave a TGI [4] greater than 100 µM, a TGI [5] greater than 100 µM and a TGI [6] of 98.9 µM. For the same compound, the TGI [7] was greater than 100 µM, the TGI [8] was greater than 100 µM and the TGI [9] was greater than 100 µM.

O=C1c2ccccc2-c2cccc3ccc(Cc4ccc5ccccc5c4)c1c23 gave a TGI [2] greater than 100 µM, a TGI [3] greater than 100 µM and a TGI [4] greater than 100 µM. For the same compound, the TGI [5] was greater than 100 µM, the TGI [6] was greater than 100 µM and the TGI [7] was greater than 100 µM. For the same compound, the TGI [8] was greater than 100 µM and the TGI [9] was greater than 100 µM.

CC(C)(C#N)c1cc(Cn2cncn2)cc(C(C)(C)C#N)c1 showed a GI50 [1] greater than 10000 µM, a TGI [1] greater than 10000 µM and a GI50 [3] of 3990 µM. It also gave a TGI [3] greater than 10000 µM, a GI50 [4] greater than 10000 µM and a TGI [4] greater than 10000 µM. The GI50 [5] was 183 µM, the TGI [5] was 698 µM and the TGI [7] was 3590 µM. The GI50 [8] was greater than 10000 µM, the TGI [8] was greater than 10000 µM and the GI50 [9] was 768 µM. The TGI [9] was greater than 10000 µM.

From PubChem BioAssay (NCI)
